# Where “and” joins values, the source holds several entries; their conditions need not be identical. Identical values can stand only once.
# Key:
# [1] = test system: reduction in bladder capacity seen following continuous infusion of dilute acetic acid; assay: Dilute Acetic Acid Model-Cats; assay type: in vivo, cat; settings: 3 point dose response, 3.0, 10.0 or 30 mg/ml dosed by body weight; P<0.0103; individual significance at 30 mg/kg
# Protocol: Six alpha-chloralose anesthetized (50-100 mg/kg) normal female cats (2,5-3.5 kg; Harlan) were utilized in this study.
# Female cats (2.5-3.5 kg; Harlan) had their food removed the night before the study. The following morning, the cats were anesthetized with isoflurane and prepped for surgery using aseptic technique. Polyethylene catheters were surgically placed to permit the measurement of bladder pressure, urethral pressure, arterial pressure, respiratory rate as well as for the delivery of drugs. Fine wire electrodes were implanted alongside the external urethral anal sphincter. […] During control cystometry, saline was slowly infused into the bladder (0.5-1.0 ml/min) for 1 hour. The control cystometry was followed by 0.5% acetic acid in saline for the duration of the experiment.
# Data was analyzed using a non-parametric One-Way ANOVA (Friedman Test) with the post-hoc Dunn's multiple comparison t test. P<0.05 was considered significant.
# [2] = test system: retching and vomiting induced by cisplatin; assay: Cisplatin-induced emesis in the ferret; assay type: in vivo, ferret (Mustela putorius furo)
# Protocol: Following administration of the cisplatin and either MCI-225, ondansetron or vehicle alone, the occurrence of retching and vomiting was monitored for a period of 6 hours. […] Vomiting was defined as the forceful oral expulsion of upper gastrointestinal contents. The latency of the retching or vomiting response and the number of episodes were recorded for each animal and summarized for each experimental group (Wright et al., Infect. […] Following one hour of acclimation to the observation cage, ferrets received an intraperitoneal (i.p.) injection of cisplatin (5 mg/kg in 5 mL) followed in about 2 minutes by i.p. injection of a single dose of MCI-225 or ondansetron (Rudd and Naylor, Eur. J. Pharmacol., 322: 79-82 (1997)). […] Each animal received a single-dose drug treatment. In addition, three animals received an initial dose (30 mg/kg i.p.) and a second MCI-225 injection (30 mg/kg i.p.) 180 minutes following the initial dose. […] All groups were randomized.
# small intestinal transit = assay: Small Intestinal Transit Rodent Model (charcoal meal); assay type: in vivo, rat; settings: for Small intestinal transit, Mean (% of total length): 15 min test period
# Protocol: Following an overnight fast, rats were brought to the laboratory in their home cages and received an i.p. injection of one of the following: […] Control rats received no treatment. The treated rats were placed back in the home cages and after 30 min, were fed a 2 mL charcoal meal via an oral gavage. Small intestinal transit was measured following 15 min test-period. Each rat was placed briefly in a glass chamber with IsoFlo for anesthesia and sacrificed. The stomach and the small intestine were removed and the total length of the small intestine was measured. Transit was then measured as the distance that the charcoal meal had traveled along the small intestine and expressed as % of the total length. Animals were randomly assigned to experimental groups and experiments were performed as illustrated in Table 11. Small intestinal transit in rats was investigated by the passage of a charcoal meal along the small intestine during a defined time period (15-min). The animals were deprived of food for 12-16 hrs prior to the experiments. Rats were given a charcoal meal (a mixture of charcoal, gum arabic, and distilled water) as a 2 mL oral gavage and were sacrificed after a 15-min test period. The distance traveled by the charcoal meal was quantified as a percent of the small intestinal length, using the following equation: Transit (%)=cm traveled by meal/cm total small intestinal length×100 […]
# [3] = test system: stress-induced accelerated colonic transit; assay: Water avoidance stress (WAS) model of increased colonic transit, fecal pellet output; assay type: in vivo, rat; settings: 3, 10 or 30 mg/kg i.p.
# Text: At the end of the 1-hour stress period, the fecal pellets were counted and recorded. WAS causes an acceleration of colonic transit, which can be quantified by counting the number of fecal pellets, produced during the stress procedure. Rats were placed for 1-hour into a stress chamber onto a raised platform 7.5 cm×7.5 cm×9 cm (L×W×H) in the center of a stress chamber filled with room temperature water 8 cm in depth. The stress chamber was constructed from a rectangular plastic tub (40.2×60.2×31.2 cm). […] Ondansetron was supplied from APIN Chemicals LTD. […] MCI-225 was provided by Mitsubishi Pharma Corp. All drugs were dissolved in a vehicle of 100% propylene glycol (1,2-propanediol) by sonicating for a period of 10 minutes. Propylene glycol was obtained from Sigma Chemical Co. […] All drugs and the vehicle were administered as an i.p. injection in a volume of 0.2 mL.
# [4] = test system: acetic acid-induced colonic hypersensitivity; assay: Visceromotor response to colorectal distension in acetic acid-sensitized rats
# Protocol: The visceromotor behavioral response to colorectal distension was measured by counting the number of abdominal contractions recorded by a strain gauge sutured onto the abdominal musculature as described in Gunter et al., Physiol. […] A 5 cm latex balloon catheter inserted via the anal canal into the colon was used for colorectal distensions. Constant pressure tonic distensions were performed in a graded manner (15, 30 or 60 mmHg) and were maintained for a period of 10 min and the numbers of abdominal muscle contractions were recorded to measure the level of colonic sensation. A 10 min recovery was allowed between distensions.
# J. Physiol. […] In the present study, a low concentration of acetic acid (1.5 ml, 0.6%) was administered intracolonically to sensitize the colon without causing histological damage to the colonic mucosa as described in previous studies (Gunter et al., supra).
# Injection volume was 0.2 mL using 100% propylene glycol as the vehicle. Three consecutive colorectal distensions at 15, 30 or 60 mmHg applied at 10-min intervals were recorded. Visceromotor responses were evaluated as the number of abdominal muscle contractions recorded during the 10-min periods of colorectal distension.
# Adult male rats were used in the study. […] Specifically, rats were anesthetized with Isoflurane (2%) and were instrumented with a strain gauge force transducer for recording of abdominal muscle contractions. A latex balloon and catheter were inserted 11 cm into the colon. The animals were allowed a 30-min period to completely recover from the anesthesia and were then subjected to intracolonic infusion of acetic acid (1.5 mL, 0.6%). An additional 30-min period was allowed for sensitization of the colon. […] The protocol for colorectal distension was initiated 30-min post drug administration. After a basal reading of the number of abdominal contractions with the balloon inserted but not distended, three consecutive 10-min lasting colorectal distensions at 15, 30, and 60 mmHg were applied at 10-min intervals. Colorectal sensitivity was evaluated by counting the number of reflex abdominal contractions (i.e. the visceromotor response) observed within each distension period.
# The visceromotor behavioral response to colorectal distension was measured by counting the number of abdominal contractions recorded by a strain gauge sutured onto the abdominal musculature as previously described Gunter et al., referenced above. Colorectal distensions were carried out utilizing a 5 cm latex balloon catheter inserted into the colon via the anal canal. Constant pressure tonic distensions were performed in a graded manner, i.e., the pressure was increased to the desired level of 15, 30, or 60 mmHg and then maintained for a period of 10 minutes during which the number of abdominal contractions were recorded to measure the level of colonic sensation. Ten minute recovery periods were allowed following each distension.
# [5] = test system: irritation-induced reduction in bladder capacity; assay: Dilute Acetic Acid Model-Rats (filling cystometry); assay type: in vivo, rat; settings: intraduodenal
# Text: The abdominal cavity was moistened with saline and closed by covering with a thin plastic sheet in order to maintain access to the bladder for emptying purposes. Fine silver or stainless steel wire electrodes were inserted into the external urethral sphincter (EUS) percutaneously for electromyography (EMG).
# P<0.050 was considered significant.
# [6] = 30 mg/kg b.i.d, second dose 180 minutes after the first
substance,measurement,setting,value
"4-(2-fluorophenyl)-6-methyl-2-(piperazin-1-yl)thieno[2,3-d]pyrimidine hydrochloride [MCI-225]",Bladder capacity following acetic acid irritation,[1],significant dose-dependent increase
same,Latency,[2]; 1 mg/kg i.p.,186 ± 35 min
same,Retches (360 min),[2]; 1 mg/kg i.p.,30.4 ± 9.1
same,Total Events,[2]; 1 mg/kg i.p.,32.9 ± 9.8
same,Vomits (360 min),[2]; 1 mg/kg i.p.,2.5 ± 0.7
same,Latency,[2]; 10 mg/kg i.p.,192 ± 57 min
same,Retches (360 min),[2]; 10 mg/kg i.p.,22.9 ± 10.3
same,Total Events,[2]; 10 mg/kg i.p.,25.5 ± 11.1
same,Vomits (360 min),[2]; 10 mg/kg i.p.,2.6 ± 1.0
same,Latency,[2]; [6],360 ± 0 min
same,Retches (360 min),[2]; [6],0.0 ± 0.0
same,Total Events,[2]; [6],0.0 ± 0.0
same,Vomits (360 min),[2]; [6],0.0 ± 0.0
same,Latency,[2]; 30 mg/kg i.p.,287 ± 38 min
same,Retches (360 min),[2]; 30 mg/kg i.p.,3.3 ± 2.2
same,Total Events,[2]; 30 mg/kg i.p.,4.0 ± 2.6
same,Vomits (360 min),[2]; 30 mg/kg i.p.,0.7 ± 0.5
same,Retches and vomits induced by cisplatin,"[2]; 1, 10 or 30 mg/kg i.p.",dose-dependent reduction
same,Emetic response,"[2]; two doses of 30 mg/kg, b.i.d at a 180-min interval",eliminated
same,"Small intestinal transit, Mean (% of total length)",small intestinal transit; 3 mg/kg i.p.,30.1%
same,"Small intestinal transit, Mean (% of total length)","small intestinal transit; 10 mg/kg i.p., hydrochloride",4.2±2.6% and 4.2%
same,"Small intestinal transit, Mean (% of total length)",small intestinal transit; 30 mg/kg i.p.,8.8%
same,Effect on small intestinal transit compared to the vehicle,"small intestinal transit; 3, 10 or 30 mg/kg i.p.",dose-dependent inhibition
same,WAS-induced fecal pellet output during 1 hour,[3],significant dose-dependent inhibition
same,"Number of abdominal contractions in response to colorectal distension, compared to the vehicle","[4]; 10 mg/kg i.p., 15, 30 and 60 mmHg",significant decrease
same,Effect on visceromotor response relative to lower dose,[4]; 30 mg/kg i.p.,less effective
same,Animals in which the visceromotor response to CRD was eliminated,"[4]; 30 mg/kg i.p., n=6",50 % of the animals
same,Bladder capacity versus AA/Veh 3,"[5]; 10 mg/kg, p<0.05 Dunn's test",significantly higher than AA/Veh 3
same,Bladder capacity versus AA/Veh 3,"[5]; 30 mg/kg, p<0.001 Dunn's test",significantly higher than AA/Veh 3
same,Bladder capacity,"[5]; 3-30 mg/kg, n=8, p=0.0005 by Friedman test",dose-dependent increase

# Reference: patent US20070254891A1, “Crystalline forms of 4-(2-fluorophenyl)-6-methyl-2-(piperazin-1-yl)thieno[2,3-d]pyrimidine” (Dynogen Pharmaceuticals, Inc., priority 2006, published 2007)
